# Assay results reported in article PMC12245108 (Advanced Science, 2025).
# Where a SMILES comes first, the peptide text is derived from it. The star is where a group is joined. NHCH2CN = N#CCN*
# Key:
# MPXV I7L protease = MPXV I7L protease (Monkeypox virus, UniProt Q8V512); test: biochemical; conditions: for inhibition at 100 µM: pH 7.5, read-out: inhibition rate
# Vaccinia virus = test: microbe, parasite or virus in culture; format: cell-based; conditions: Orthopoxvirus vaccinia, HeLa, 24 h, read-out: EC50 for vaccinia virus replication inhibition
# in vitro = conditions: human
SMILES,inhibition at 100 µM (MPXV I7L protease) [%],IC50 (MPXV I7L protease) [nM],further results
"CC(C)(C)NC(=O)N[C@H](C(=O)N1C[C@H]2[C@@H]([C@H]1C(=O)NC(CC1CCC1)C(=O)C(N)=O)C2(C)C)C(C)(C)C (stereo partly shown) [Boceprevir, reference compound]",< 50,,
"CCCCCCCCCCCCCCCCOCCCOP(=O)(O)CO[C@H](CO)Cn1ccc(N)nc1=O [Brincidofovir, reference compound]",,,EC50 (Vaccinia virus): 900 nM
"Cn1cnc(Cn2c(=O)[nH]/c(=N\c3cc4cn(C)nc4cc3Cl)n(Cc3cc(F)c(F)cc3F)c2=O)n1 [Ensitrelvir, reference compound]",< 50,,
"CC(C)C[C@H](NC(=O)OCc1ccccc1)C(=O)N[C@@H](C[C@@H]1CCNC1=O)C(O)S(=O)(=O)[O-].[Na+] (stereo partly shown) [GC376, reference compound]",,,inhibition rate (MPXV I7L protease; pH 7.5): below 50%
"Cc1cccc(C)c1OCC(=O)N[C@@H](Cc1ccccc1)[C@@H](O)C[C@H](Cc1ccccc1)NC(=O)[C@H](C(C)C)N1CCCNC1=O [Lopinavir, reference compound]",< 50,,
"CCCC[C@H](NC(=O)[C@@H]1[C@@H]2[C@H](CN1C(=O)[C@@H](NC(=O)NC1(CS(=O)(=O)C(C)(C)C)CCCCC1)C(C)(C)C)C2(C)C)C(=O)C(=O)NC1CC1 [Narlaprevir, reference compound]",< 50,,
"CC(C)(C)[C@H](NC(=O)C(F)(F)F)C(=O)N1C[C@H]2[C@@H]([C@H]1C(=O)N[C@H](C#N)C[C@@H]1CCNC1=O)C2(C)C [Nirmatrelvir, reference compound]",< 50,,
"CC(C)c1nc(CN(C)C(=O)N[C@H](C(=O)N[C@@H](Cc2ccccc2)C[C@H](O)[C@H](Cc2ccccc2)NC(=O)OCc2cncs2)C(C)C)cs1 [Ritonavir, reference compound]",< 50,,
"CCC[C@H](NC(=O)[C@@H]1[C@H]2CCC[C@H]2CN1C(=O)[C@@H](NC(=O)[C@@H](NC(=O)c1cnccn1)C1CCCCC1)C(C)(C)C)C(=O)C(=O)NC1CC1 [Telaprevir, reference compound]",< 50,,
"CC[C@H](C)[C@H](NC(C)=O)C(=O)N[C@@H](Cc1ccccc1)C(=O)N[C@@H](Cc1ccccc1)C(=O)N[C@@H](C)C(=O)NCC#N [compound 1, (2S,3S)-2-acetamido-N-((S)-1-(((S)-1-(((S)-1-((cyanomethyl)amino)-1-oxopropan-2-yl)amino)-1-oxo-3-phenylpropan-2-yl)amino)-1-oxo-3-phenylpropan-2-yl)-3-methylpentanamide] (Ac-IFFA-NHCH2CN)",,171,
"CC[C@H](C)[C@H](NC(=O)[C@@H](NC(=O)[C@H](CCSC)NC(C)=O)C(C)C)C(=O)N[C@@H](C)C(=O)NCC#N [compound 2, (2S,3S)-2-((S)-2-((S)-2-acetamido-4-(methylthio)butanamido)-3-methylbutanamido)-N-((S)-1-((cyanomethyl)amino)-1-oxopropan-2-yl)-3-methylpentanamide] (Ac-MVIA-NHCH2CN)",,132,
"CC(=O)N[C@@H](Cc1ccc(O)cc1)C(=O)N[C@@H](Cc1ccccc1)C(=O)N[C@@H](Cc1ccc(O)cc1)C(=O)N[C@@H](C)C(=O)NCC#N [compound 3, (S)-2-acetamido-N-((S)-1-(((S)-1-(((S)-1-((cyanomethyl)amino)-1-oxopropan-2-yl)amino)-3-(4-hydroxyphenyl)-1-oxopropan-2-yl)amino)-1-oxo-3-phenylpropan-2-yl)-3-(4-hydroxyphenyl)propanamide] (Ac-YFYA-NHCH2CN)",,79 ± 15,
"CC[C@H](C)[C@H](NC(C)=O)C(=O)N[C@H](C(=O)N[C@@H](CC(N)=O)C(=O)N[C@@H](C)C(=O)NCC#N)[C@@H](C)O [compound 4, (S)-2-((2S,3R)-2-((2S,3S)-2-acetamido-3-methylpentanamido)-3-hydroxybutanamido)-N^1-((S)-1-((cyanomethyl)amino)-1-oxopropan-2-yl)succinamide] (Ac-ITNA-NHCH2CN)",,1620,
"CC(=O)N[C@@H](CC(=O)O)C(=O)N[C@@H](Cc1ccccc1)C(=O)N[C@@H](CO)C(=O)N[C@@H](C)C(=O)NCC#N [compound 6, (4S,7S,10S,13S)-13-acetamido-10-benzyl-1-cyano-7-(hydroxymethyl)-4-methyl-3,6,9,12-tetraoxo-2,5,8,11-tetraazapentadecan-15-oic acid] (Ac-DFSA-NHCH2CN)",,74 ± 29,
"CC[C@H](C)[C@H](NC(=O)[C@H](Cc1ccc(O)cc1)NC(=O)[C@@H]1CCCN1C(C)=O)C(=O)N[C@@H](C)C(=O)NCC#N [compound 7, (S)-1-acetyl-N-((S)-1-(((2S,3S)-1-(((S)-1-((cyanomethyl)amino)-1-oxopropan-2-yl)amino)-3-methyl-1-oxopentan-2-yl)amino)-3-(4-hydroxyphenyl)-1-oxopropan-2-yl)pyrrolidine-2-carboxamide] (Ac-PYIA-NHCH2CN)",,241 ± 29,
"CC[C@H](C)[C@H](NC(C)=O)C(=O)N[C@@H](Cc1ccccc1)C(=O)N[C@@H](CC(N)=O)C(=O)N[C@@H](C)C(=O)NCC#N [compound 8, (S)-2-((S)-2-((2S,3S)-2-acetamido-3-methylpentanamido)-3-phenylpropanamido)-N^1-((S)-1-((cyanomethyl)amino)-1-oxopropan-2-yl)succinamide] (Ac-IFNA-NHCH2CN)",,71,
"CC[C@H](C)[C@H](NC(=O)[C@@H](NC(C)=O)C(C)C)C(=O)N[C@@H](C)C(=O)NCC#N [compound 9, (2S,3S)-2-((S)-2-acetamido-3-methylbutanamido)-N-((S)-1-((cyanomethyl)amino)-1-oxopropan-2-yl)-3-methylpentanamide]",,400,
"CC[C@H](C)[C@H](NC(=O)Cc1ccccc1)C(=O)N[C@@H](C)C(=O)NCC#N [compound 10, (2S,3S)-N-((S)-1-((cyanomethyl)amino)-1-oxopropan-2-yl)-3-methyl-2-(2-phenylacetamido)pentanamide]",,122,EC50 (Vaccinia virus): 6300 nM; cytotoxicity (HeLa cells): no detectable cytotoxicity; CC50 (in vitro): > 400000 nM
"CC[C@H](C)[C@H](NC(=O)[C@@H](C)c1ccccc1)C(=O)N[C@@H](C)C(=O)NCC#N [compound 11, (2S,3S)-N-((S)-1-((cyanomethyl)amino)-1-oxopropan-2-yl)-3-methyl-2-((S)-2-phenylpropanamido)pentanamide]",,69,EC50 (Vaccinia virus): 6000 nM; cytotoxicity (HeLa cells): no detectable cytotoxicity; CC50 (in vitro): > 400000 nM
